A word on the IC50: it is the point on the concentration scale where inhibition reaches its midpoint.

The structures appear in SMILES notation. Several values for one entry are separate records, joined by “and”; a condition that tells them apart may be missing. Equal values may be shown once.

Chain of hNav1.7 alpha subunit (Q15858 1-1977 isoform Q15858-3): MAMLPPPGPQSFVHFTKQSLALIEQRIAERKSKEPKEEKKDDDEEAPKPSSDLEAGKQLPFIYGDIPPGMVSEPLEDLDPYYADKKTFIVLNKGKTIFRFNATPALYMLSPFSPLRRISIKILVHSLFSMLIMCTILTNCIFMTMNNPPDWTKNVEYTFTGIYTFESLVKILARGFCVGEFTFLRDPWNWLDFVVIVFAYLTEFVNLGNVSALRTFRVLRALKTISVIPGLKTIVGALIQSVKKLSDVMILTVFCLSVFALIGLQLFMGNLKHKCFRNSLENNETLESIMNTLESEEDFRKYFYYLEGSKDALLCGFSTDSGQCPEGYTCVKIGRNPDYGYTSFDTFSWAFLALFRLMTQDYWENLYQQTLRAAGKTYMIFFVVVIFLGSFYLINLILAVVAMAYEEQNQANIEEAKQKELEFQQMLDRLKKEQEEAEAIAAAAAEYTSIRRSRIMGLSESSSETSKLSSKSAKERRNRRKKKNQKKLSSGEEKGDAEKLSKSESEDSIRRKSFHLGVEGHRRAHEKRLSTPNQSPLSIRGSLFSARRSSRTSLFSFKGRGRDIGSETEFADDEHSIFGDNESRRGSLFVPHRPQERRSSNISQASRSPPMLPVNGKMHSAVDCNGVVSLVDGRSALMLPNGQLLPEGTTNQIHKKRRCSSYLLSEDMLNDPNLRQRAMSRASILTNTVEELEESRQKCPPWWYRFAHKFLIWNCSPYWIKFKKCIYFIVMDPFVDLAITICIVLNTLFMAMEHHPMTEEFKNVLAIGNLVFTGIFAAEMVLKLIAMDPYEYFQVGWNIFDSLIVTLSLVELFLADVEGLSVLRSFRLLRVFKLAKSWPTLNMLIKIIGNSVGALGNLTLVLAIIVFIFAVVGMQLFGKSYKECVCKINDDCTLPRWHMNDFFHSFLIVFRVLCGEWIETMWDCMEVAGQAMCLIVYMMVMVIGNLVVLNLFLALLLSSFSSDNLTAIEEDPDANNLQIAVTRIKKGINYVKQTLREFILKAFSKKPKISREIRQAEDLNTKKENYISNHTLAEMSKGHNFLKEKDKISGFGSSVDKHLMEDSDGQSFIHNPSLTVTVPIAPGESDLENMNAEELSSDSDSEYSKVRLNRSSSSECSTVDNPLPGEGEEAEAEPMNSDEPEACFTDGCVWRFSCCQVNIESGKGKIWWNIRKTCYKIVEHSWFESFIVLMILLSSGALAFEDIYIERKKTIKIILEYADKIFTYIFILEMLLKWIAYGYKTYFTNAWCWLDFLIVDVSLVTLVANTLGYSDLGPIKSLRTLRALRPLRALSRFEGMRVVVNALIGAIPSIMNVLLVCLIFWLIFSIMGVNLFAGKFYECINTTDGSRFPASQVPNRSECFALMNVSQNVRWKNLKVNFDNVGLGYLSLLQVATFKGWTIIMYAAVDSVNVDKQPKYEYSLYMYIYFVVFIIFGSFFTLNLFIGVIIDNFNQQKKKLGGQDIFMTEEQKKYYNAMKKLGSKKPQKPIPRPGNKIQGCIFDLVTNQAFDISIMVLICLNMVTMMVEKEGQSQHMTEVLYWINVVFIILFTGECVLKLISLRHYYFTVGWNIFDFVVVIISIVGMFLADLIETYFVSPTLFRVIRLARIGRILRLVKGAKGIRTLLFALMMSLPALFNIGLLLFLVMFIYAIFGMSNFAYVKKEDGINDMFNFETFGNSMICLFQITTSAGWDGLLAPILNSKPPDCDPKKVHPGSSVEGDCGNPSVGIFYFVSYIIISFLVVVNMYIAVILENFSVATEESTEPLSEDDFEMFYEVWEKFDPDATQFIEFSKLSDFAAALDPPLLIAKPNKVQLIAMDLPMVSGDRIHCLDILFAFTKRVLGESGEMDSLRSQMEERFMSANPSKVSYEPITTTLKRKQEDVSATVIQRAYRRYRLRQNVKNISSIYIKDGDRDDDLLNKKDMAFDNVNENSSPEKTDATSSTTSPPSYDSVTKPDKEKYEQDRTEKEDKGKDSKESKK

The experiment concerns the target hNav1.7 alpha subunit (Homo sapiens, UniProt Q15858). Kind of experiment: Electrophysiology using Sophion QPatch: inhibition of hNav1.7 currents. The experiment is classed as cell-based. The note with it: QPatch 16X whole cell voltage clamp, hNav1.7 alpha HEK 293; holding -80 mV, -120mV for 100ms, step to 0mV; peak inward current; cumulative doses 100pM to 10µM, 10 minutes per dose; extracellular buffer pH 7.4 + 0.1% BSA; n = 9-11 (given for HwTx-IV(acid)); spread type not stated; read-out: IC50 on Nav1.7. How it is done: Electrophysiology using Sophion QPatch^TM
hNav1.7 alpha HEK 293 cell line (NM_002977.2) was obtained from Millipore and cells were cultured in a 50/50 mix of DMEM and Hams F-12 growth media supplemented with 10% FBS. Cells were passaged by Detachin (Genlantis) treatment (5 minutes), seeded 48-72 hours prior to experiments and used between passage 5 and 10. Cells were harvested at 70% confluency and resuspended by trituration in 8ml of Ex-cell ACF CHO serum free media (Sigma) + 20mM HEPES giving a cell density of 2-3x10^6cells/ml.
Solutions for electrophysiology: Extracellular solution contained (in mM) NaCl (145), KCl (2), CaCl2 (2), MgCl2 (1), HEPES (10), pH 7.4 with NaOH, osmolarity adjusted to 300 mOsm with sucrose. Intracellular solution contained (in mM), CsF (140), NaCl (10), EGTA (1), HEPES (10), pH 7.2 with CsOH, osmolarity adjusted to 325 mOsm with sucrose.
Serial dilutions were made in extracellular buffer + 0.1% BSA. Cumulative dose response curves were constructed with doses of 1e-10 to 1e-5M (100pM to 10µM). Each dose was applied for 10 minutes with 3x5µl compound additions spaced 2 seconds apart (Note that complete solution exchange is achieved with volumes of ~2µl).
Nav1.7 currents were measured using the automated electrophysiology platform Qpatch 16X (Sophion) in single hole configuration. […] To measure Nav1.7 currents, membrane potential was held at -80 mV then stepped to -120mV for 100ms to remove fast inactivation, followed by a step to 0mV for 10ms to activate Nav1.7 then returned to -120mV for 100ms. This voltage protocol was repeated at a rate of 0.2Hz with a the membrane potential held at -80mV between sweeps. Data were sampled at 10kHz and filtered using a 4 pole Bessel filter at 3kHz. P/N leak subtraction was utilized with a leak sweep of -10%. Series resistance was compensated 75% as standard. Liquid junction potentials were not corrected.
Peak inward current at 0mV was normalised to cell capacitance (pA/pF). […]
In general terms: The patch-clamp technique gives a direct electrical read-out from membranes.
For `CC[C@H](C)[C@H](NC(=O)[C@H](CCC(N)=O)NC(=O)[C@H](Cc1ccc(O)cc1)NC(=O)[C@H](CCCCN)NC(=O)[C@@H]1CSSC[C@@H]2NC(=O)[C@H](CCC(N)=O)NC(=O)[C@H](CC(=O)O)NC(=O)[C@H](CC(N)=O)NC(=O)[C@H](CO)NC(=O)[C@@H]3CCCN3C(=O)[C@H](CC(N)=O)NC(=O)[C@@H]3CSSC[C@H](NC(=O)[C@H](C(C)C)NC(=O)[C@H](CC(C)C)NC(=O)[C@H](CCCCN)NC(=O)[C@H](CO)NC(=O)[C@H](CO)NC(=O)[C@H](CCCCN)NC(=O)[C@H](CSSC[C@H](NC(=O)[C@@H](N)CCC(=O)O)C(=O)N[C@@H](CC(C)C)C(=O)N[C@@H](CCC(=O)O)C(=O)N[C@@H]([C@@H](C)CC)C(=O)N[C@@H](Cc4ccccc4)C(=O)N[C@@H](CCCCN)C(=O)N[C@@H](C)C(=O)N3)NC2=O)C(=O)N[C@@H](CO)C(=O)N[C@@H](CCCNC(=N)N)C(=O)N[C@@H](CCCCN)C(=O)N[C@@H]([C@@H](C)O)C(=O)N[C@@H](CCCNC(=N)N)C(=O)N[C@@H](Cc2c[nH]c3ccccc23)C(=O)N1)C(=O)O` [HwTx-IV(acid)], the IC50 was 463 to 727 nM and 727 nM and 463 nM.

In the case of `CC[C@H](C)[C@H](NC(=O)[C@H](CCC(N)=O)NC(=O)[C@H](Cc1ccc(O)cc1)NC(=O)[C@H](CCCCN)NC(=O)[C@@H]1CSSC[C@@H]2NC(=O)[C@H](CCC(N)=O)NC(=O)[C@H](CC(=O)O)NC(=O)[C@H](CC(N)=O)NC(=O)[C@H](CO)NC(=O)[C@@H]3CCCN3C(=O)[C@H](CC(N)=O)NC(=O)[C@@H]3CSSC[C@H](NC(=O)[C@H](C(C)C)NC(=O)[C@H](CC(C)C)NC(=O)[C@H](CCCCN)NC(=O)[C@H](CO)NC(=O)[C@H](CO)NC(=O)[C@H](CCCCN)NC(=O)[C@H](CSSC[C@H](NC(=O)[C@@H](N)CCC(=O)O)C(=O)N[C@@H](CC(C)C)C(=O)N[C@@H](CCC(=O)O)C(=O)N[C@@H]([C@@H](C)CC)C(=O)N[C@@H](Cc4ccccc4)C(=O)N[C@@H](CCCCN)C(=O)N[C@@H](C)C(=O)N3)NC2=O)C(=O)N[C@@H](CO)C(=O)N[C@@H](CCCNC(=N)N)C(=O)N[C@@H](CCCCN)C(=O)N[C@@H]([C@@H](C)O)C(=O)N[C@@H](CCCNC(=N)N)C(=O)N[C@@H](Cc2c[nH]c3ccccc23)C(=O)N1)C(=O)NCC(=O)O` [HwTx-IV^G36(acid)], the IC50 is 190 nM and 195 nM.

Regarding `CC[C@H](C)[C@H](NC(=O)[C@H](CCC(N)=O)NC(=O)[C@H](Cc1ccc(O)cc1)NC(=O)[C@H](CCCCN)NC(=O)[C@@H]1CSSC[C@@H]2NC(=O)[C@H](CCC(N)=O)NC(=O)[C@H](CC(=O)O)NC(=O)[C@H](CC(N)=O)NC(=O)[C@H](CO)NC(=O)[C@@H]3CCCN3C(=O)[C@H](CC(N)=O)NC(=O)[C@@H]3CSSC[C@H](NC(=O)[C@H](C(C)C)NC(=O)[C@H](CC(C)C)NC(=O)[C@H](CCCCN)NC(=O)[C@H](CO)NC(=O)[C@H](CO)NC(=O)[C@H](CCCCN)NC(=O)[C@H](CSSC[C@H](NC(=O)[C@@H](N)CCC(=O)O)C(=O)N[C@@H](CC(C)C)C(=O)N[C@@H](CCC(=O)O)C(=O)N[C@@H]([C@@H](C)CC)C(=O)N[C@@H](Cc4ccccc4)C(=O)N[C@@H](CCCCN)C(=O)N[C@@H](C)C(=O)N3)NC2=O)C(=O)N[C@@H](CO)C(=O)N[C@@H](CCCNC(=N)N)C(=O)N[C@@H](CCCCN)C(=O)N[C@@H]([C@@H](C)O)C(=O)N[C@@H](CCCNC(=N)N)C(=O)N[C@@H](Cc2c[nH]c3ccccc23)C(=O)N1)C(=O)NCC(N)=O` [HwTx-IV^G36(amide)], the IC50 is 33 ± 9 nM.
